According to ChEMBL document CHEMBL5608141, “Identification of compartment-specific drug sensitivities in CRC organoid-stroma co-cultures” (2024):

Columns and labels:
Format in all cases: functional, Homo sapiens
Set-up in all cases: dose or concentration left out as unconfirmed
[1] = system: Colon cancer organoid; assay: Identification of compartment-specific drug sensitivities in O20 CRC organoid-stroma F20 CAF co-cultures. Organoid is transduced with Lucferase2-P2A-EGFP lentivirus, fibroblast with Renilla-dsRed lentivirus. Dual-Glo Luciferase assay is used to report viability data.
[2] = system: Colon cancer organoid; assay: Identification of compartment-specific drug sensitivities in O14 CRC organoid-stroma F14 CAF co-cultures. Organoid is transduced with Lucferase2-P2A-EGFP lentivirus, fibroblast with Renilla-dsRed lentivirus. Dual-Glo Luciferase assay is used to report viability data.
[3] = system: Colon cancer organoid; assay: Identification of compartment-specific drug sensitivities in O06 CRC organoid-stroma F06 CAF co-cultures. Organoid is transduced with Lucferase2-P2A-EGFP lentivirus, fibroblast with Renilla-dsRed lentivirus. Dual-Glo Luciferase assay is used to report viability data.
[4] = Transduced with Lucferase2-P2A-EGFP lentivirus
[5] = Transduced with Renilla-dsRed lentivirus

Row | Structure (SMILES) | Cell Viability [1, 4] | Cell Viability [1, 5] | Cell Viability [2, 4] | Cell Viability [2, 5] | Cell Viability [3, 4] | Cell Viability [3, 5]
1 | CNc1cc(Oc2cc(C(=O)Nc3cc(N4CCN(C)CC4)cc(C(F)(F)F)c3)ccc2C)ncn1 | 163.613% | 75.5289% | 198.58% | 101.862% | 72.9479% | 75.3319%
2 | C[C@H](c1ccc(F)cc1)N(Cc1ccc(Cl)c(C(=O)O)c1)C(=O)c1cnc2ccccc2c1 [PF-05257137] | 147.232% | 103.742% | 108.547% | 109.197% | 94.0157% | 76.638%
3 | O=C1c2ccc(Nc3ccc(F)cc3F)cc2CCc2ccc(OC[C@H](O)CO)cc21 [Skepinone-L] | 88.6485% | 86.6611% | 166.491% | 75.8508% | 115.343% | 88.0925%
4 | COc1ncc(-c2ccc3nccc(-c4ccnnc4)c3c2)cc1NS(=O)(=O)c1ccc(F)cc1F [OMIPALISIB] | 2.282% | 94.8256% | 6.452% | 40.6761% | 2.362% | 34.7423%
5 | O=C(NCc1ncc(C(F)(F)F)cc1Cl)c1ccc2c(c1)C1(CCS(=O)(=O)CC1)[C@@H](C1CC1)N2S(=O)(=O)c1ccc(F)cc1 [BAY-786] | 102.274% | 106.984% | 85.8201% | 92.0831% | 81.2723% | 52.1511%
6 | Cc1sc2c(c1C)C(c1ccc(Cl)cc1)=N[C@@H](CC(=O)NCCCCCCCCNC(=O)COc1cccc3c1C(=O)N(C1CCC(=O)NC1=O)C3=O)c1nnc(C)n1-2 (stereo partly specified) | 2.01% | 74.9854% | 5.905% | 10.8389% | 5.4511% | 19.3995%
7 | CC(C)C(=O)Nc1n[nH]c2cc(-c3cccc(NS(=O)(=O)C4CC4)c3)ccc12 | 85.5363% | 102.387% | 122.353% | 104.553% | 78.2505% | 111.722%
8 | Cn1nc(C(F)(F)F)cc1-c1cnc(N2CCc3cc(S(=O)(=O)Nc4c(F)cc(Cl)cc4F)cc(N4CCCC4=O)c32)nc1 [TP-020] | 86.7802% | 95.2287% | 113.877% | 116.294% | 69.3758% | 110.898%
9 | CCc1cc(Nc2nccc(-c3c(-c4ccc(OC)c(C(=O)Nc5c(F)cccc5F)c4)nc4ccccn34)n2)c(OC)cc1N1CCC(N2CCN(S(C)(=O)=O)CC2)CC1 | 117.027% | 82.2783% | 103.898% | 108.534% | 86.7992% | 78.7013%
10 | COc1ccc2c(O[C@@H]3C[C@H]4C(=O)N[C@]5(C(=O)O)CC5/C=C\CCCCC[C@H](NC(=O)OC5CCCC5)C(=O)N4C3)cc(-c3csc(NC(=O)C(C)C)n3)nc2c1C (stereo partly specified) [BI 1230] | 95.5192% | 162.279% | 146.11% | 113.81% | 110.189% | 125.746%
11 | c1ccc2oc(-c3csc(C4CCN(Cc5nc6ncccc6[nH]5)CC4)n3)cc2c1 | 55.8704% | 105.216% | 115.362% | 96.8387% | 118.221% | 124.83%
12 | Cn1cc(CCn2cnc(-c3cnn(C)c3)c2-c2ccc(C#N)cc2)cn1 | 163.337% | 107.326% | 93.9691% | 90.5921% | 101.212% | 117.261%
13 | CCCCNNC(=O)c1ccc(Br)cc1 | 131.97% | 114.511% | 96.2748% | 91.9269% | 113.204% | 110.004%
14 | CC(C)[C@H](C(=O)Nc1ccc(C(=O)NO)cc1)c1ccccc1 [AR-42] | 13.9942% | 352.85% | 24.8523% | 220.952% | 8.004% | 640.047%
15 | CN(C)CCOc1ccc(-c2nc(-c3ccncc3)c(-c3ccc4c(c3)CC/C4=N\O)[nH]2)cc1 [SB590885] | 154.959% | 68.1541% | 183.636% | 84.6732% | 79.2379% | 96.48%
16 | OCCn1cc(-c2cnc3nnn(Cc4ccc5ncccc5c4)c3n2)cn1 [PF-04217903] | 122.103% | 97.2338% | 55.9796% | 102.526% | 88.0795% | 107.387%

Row | Structure (SMILES) | Cell Viability [1, 4] | Cell Viability [1, 5] | Cell Viability [2, 4] | Cell Viability [2, 5] | Cell Viability [3, 4] | Cell Viability [3, 5]
17 | CN(C)C(=O)/C(C#N)=C/c1ccc(-c2nc3cnc4c(ccn4C)c3n2C2CCCCC2)o1 | 49.7098% | 127.191% | 110.125% | 86.2886% | 28.6002% | 127.582%
18 | CCOC(=O)c1c(/C(C#N)=C\N)c2ccc(Cl)c(Cl)c2n1C | 91.9928% | 87.4636% | 89.9628% | 62.6784% | 122.99% | 97.4073%
19 | CCOCCn1cc(C(=O)Nc2ccc(-n3nc(-c4cccnc4)cc3C(F)(F)F)cn2)ccc1=O [BI 1935] | 76.3275% | 148.205% | 82.3072% | 94.7961% | 87.0785% | 88.003%
20 | CN(C(=O)c1cnn2cccnc12)c1cc2c(cc1N1CCOCC1)C(=O)N(C[C@@H](F)C(C)(C)O)C2 | 85.5909% | 89.8275% | 98.5166% | 101.353% | 93.6773% | 65.3185%
21 | Cc1c(NC(=O)c2ccc(C(C)(C)C)cc2)cccc1-c1cn(C)c(=O)c(Nc2ccc(C(=O)N3CCOCC3)cc2)n1 | 110.349% | 88.3582% | 92.1091% | 94.7887% | 105.279% | 113.435%
22 | Cn1c(C2(NC(=O)c3ccc(NCC4CCCCC4)nc3)CCC2)nc2ccc(/C=C/C(=O)O)cc21 [BI 7656] | 93.1126% | 134.723% | 93.219% | 83.8542% | 95.6503% | 130.646%
23 | CC1=C(C(=O)Nc2cc3cn[nH]c3cc2F)C(c2ccc(C(F)(F)F)cc2)CC(=O)N1 (stereo unspecified) | 133.463% | 94.2958% | 103.838% | 118.18% | 110.512% | 74.1449%
24 | CNC(=O)c1cc(C(=O)NC2CC2)cn(Cc2ccccc2)c1=O [GSK620] | 93.0444% | 100.747% | 84.0371% | 91.229% | 111.223% | 132.009%
25 | O=C(Nc1ccc(-c2ccnc(Nc3ccc(N4CCOCC4)cc3)n2)cc1)[C@@H]1CCCN1 | 139.273% | 76.0213% | 129.164% | 79.5845% | 100.254% | 96.014%
26 | CN1CCN(c2ccc(-c3cccc(CN4CCOCC4)c3)cc2NC(=O)c2c[nH]c(=O)cc2C(F)(F)F)CC1 | 82.8822% | 116.555% | 95.9628% | 85.2187% | 91.1397% | 122.014%
27 | N#CC1(c2ccccn2)CCN(Cc2cc(C(=O)O)c(=O)n3ccccc23)CC1 [MSD-M1PAM] | 53.4383% | 117.537% | 84.139% | 110.281% | 12.088% | 188.309%
28 | O=C(O)CNC(=O)c1c(O)c2ccccc2n(Cc2ccccc2)c1=O | 96.6263% | 149.859% | 107.659% | 95.196% | 145.736% | 124.036%
29 | CC(C)(C)OC(=O)N1CCCC1CNC1CCC(c2cc(F)ccc2F)(S(=O)(=O)c2ccc(Cl)cc2)CC1 (stereo unspecified) [GSI-NC] | 93.8933% | 100.789% | 112.017% | 95.5535% | 96.8575% | 78.4593%
30 | Cn1cncc1[C@@](O)(COc1ccc(C#N)cc1-c1ccc(OC(F)(F)F)cc1)c1ccc(C#N)cc1 [A-108] | 89.1467% | 110.638% | 94.7328% | 120.862% | 61.6996% | 139.827%
31 | CO[C@@H](C)c1c(Nc2ccc([C@H](N(C)C(=O)C3CCS(=O)(=O)CC3)C(F)(F)F)cc2)cnc2cc(Cl)nn12 [NVS-MALT1] | 88.0389% | 98.697% | 78.8073% | 82.3583% | 54.3511% | 83.5282%
